Results from US20050187240A1, “Aaptamine and isoaaptamine and structural modifications thereof” (The Arizona Board of Regents, Acting for and on behalf of …, priority 2004, published 2005).
Values after ≈ are worked out from the molar mass of the structure shown. Like-named read-outs stand apart in the source and are kept apart here.

Tests used:
[1] = test system: murine P388 lymphocytic leukemia cell line; test: Cancer cell growth inhibition, murine P388 lymphocytic leukemia cell line; assay type: cell-based; conditions: for IC50: Mus musculus, read-out: Cancer Cell Line Results ED50
Description: (§1) Evaluation of demethyloxyaaptamine (3), aaptamine (1), isoaaptamine (2) and hystatin 1 (11) against the Arizona State University Cancer Research Institute's human tumor cell line panel (Table 1) and the NCI 60-cell line human tumor screen were undertaken. (Boyd, M. R., Cancer: Principles and Practices of Oncology Updates; DeVita, et al., Eds; Lippincott: Philadelphia, 1989, Vol. 10, No. 3, pp. 1-12; Boyd, et al., Drug Development Research 1995, 34, 91-109; Boyd, M. R., et al. Cytotoxic Anticancer Drugs: Models and Concepts for Drug Discovery and Development; Valeriote, A., et al., Eds, Kluwer Academic Publishers: Amsterdam, 1992, pp. 11-34.)
(§2) Biology The cancer cell growth inhibitory properties were examined using the murine P388 lymphocytic leukemia cell line and a selection of human cancer cell lines.
(§3) All of the synthetic products were evaluated against a minipanel of human cancer cell lines, the murine P388 lymphocytic leukemia cell line and a selection of microorganisms.

ovary OVCAR-3 = test: Cancer cell growth inhibition, ovary OVCAR-3; assay type: cell-based, human; conditions: Table 1
Description: (§4) (Boyd, M. R., Cancer: Principles and Practices of Oncology Updates; […], et al., Eds; Lippincott: Philadelphia, 1989, Vol. 10, No. 3, pp. 1-12; Boyd, et al., Drug Development Research 1995, 34, 91-109; Boyd, M. R., et al. Cytotoxic Anticancer Drugs: Models and Concepts for Drug Discovery and Development; Valeriote, A., et al., Eds, Kluwer Academic Publishers: Amsterdam, 1992, pp. 11-34.)

CNS SF-295 = test: Cancer cell growth inhibition, CNS SF-295; assay type: cell-based, human; conditions: Table 1
Description: as §4

renal A498 = test: Cancer cell growth inhibition, renal A498; assay type: cell-based, human; conditions: Table 1
Description: as §4

lung NCI-H460 = test: Cancer cell growth inhibition, lung NCI-H460; assay type: cell-based, human; conditions: lung NCI-H460; for IC50: Homo sapiens, read-out: Cancer Cell Line Results ED50
Description: as §1, §2, §3

colon KM 20L2 = test: Cancer cell growth inhibition, colon KM 20L2; assay type: cell-based, human; conditions: colon KM 20L2; for IC50: Homo sapiens, read-out: Cancer Cell Line Results ED50
Description: as §1, §2, §3

melanoma SK-MEL-5 = test: Cancer cell growth inhibition, melanoma SK-MEL-5; assay type: cell-based, human; conditions: Table 1
Description: as §4

pancreas BXPC-3 = test: Cancer cell growth inhibition, pancreas BXPC-3; assay type: cell-based, human; conditions: pancreas BXPC-3
Procedure: as §2, §3

breast MCF-7 = test: Cancer cell growth inhibition, breast MCF-7; assay type: cell-based, human; conditions: breast MCF-7
Procedure: as §2, §3

CNS SF-268 = test: Cancer cell growth inhibition, CNS SF-268; assay type: cell-based, human; conditions: CNS SF-268
Procedure: as §2, §3

prostrate DU-145 = test: Cancer cell growth inhibition, prostate DU-145; assay type: cell-based, human
Procedure: as §2, §3

Cryptococcus neoformans = test: Broth microdilution susceptibility assay, Cryptococcus neoformans; assay type: cell-based
Candida albicans = test: Broth microdilution susceptibility assay, Candida albicans; assay type: cell-based
Staphylococcus aureus = test: Broth microdilution susceptibility assay, Staphylococcus aureus; assay type: cell-based
Streptococcus pneumoniae = test: Broth microdilution susceptibility assay, Streptococcus pneumoniae; assay type: cell-based
Enterococcus faecalis = test: Broth microdilution susceptibility assay, Enterococcus faecalis; assay type: cell-based
Micrococcus luteus = test: Broth microdilution susceptibility assay, Micrococcus luteus; assay type: cell-based
Escherichia coli = test: Broth microdilution susceptibility assay, Escherichia coli; assay type: cell-based
Enterobacter cloacae = test: Broth microdilution susceptibility assay, Enterobacter cloacae; assay type: cell-based
[2] = test system: Stenotrophomonas maltophilia; test: Broth microdilution susceptibility assay, Stenotrophomonas maltophilia; assay type: cell-based
Neisseria gonorrhoeae = test: Broth microdilution susceptibility assay, Neisseria gonorrhoeae; assay type: cell-based
[3] = Stability of the substance (observation); assay type: physicochemical
Description: When newly isolated, isoaaptamine (2) appears as a yellow colored powder that rapidly changes to dark green and finally brown or black, presumably due to air oxidation. […] For that purpose, isoaaptamine (2) was first phosphorylated with dibenzylphosphate (Pettit, G. R. et al., Anti-Cancer Drug Design 2000, 15, 203-216; Silverberg, L. J., Tetrahedron Lett. 1996, 37, 771-774). […] Scheme 2 below illustrates the aforementioned synthesis method. [drawing 17] Biology

[4] = test system: Mycobacterium tuberculosis H37Rv; test: Microplate Alamar Blue Assay, Mycobacterium tuberculosis; assay type: cell-based; conditions: 6.25 μg/ml
PKC alpha [5] = molecular target: T1, PKC alpha (Homo sapiens, UniProt P17252); test: Inhibition of [3H]phorbol 12,13-dibutyrate binding to PKC alpha; conditions: 30 μM compound; read-out: inhibition of [3H]phorbol 12,13-dibutyrate binding to PKC alpha
Procedure: Isoaaptamine (2) and derivatives 4, 5, 7, 8, and 14-18 were evaluated as ligands for PKC, based on the initial report of activity for isoaaptamine (Patil, et al., PCT Int. Appl. WO 95/0584 March 1995). Activity was measured at 30 μM compound using inhibition of [^3H-20]phorbol 12,13-dibutyrate binding to PKC alpha as described previously (Kazanietz, M. G., et al., Molecular Pharmacol., 1993, 44, 298). Assays were carried out with triplicate measurements in either single or triplicate experiments, depending on the compound.
Compounds 4, 5, 9a-c, and 10a-d were evaluated as ligands for PKC, based on the initial report of activity for isoaaptamine. Activity was measured at 30 μM compound using inhibition of [20-^3H]phorbol 12,13-dibutyrate binding to PKC alpha as described previously (Kazanietz, M. G., et al., Characterization of Ligand and Substrate Specificity for the Calcium-Dependent and Calcium-Independent Protein Kinase C Isoenzymes, Molecular Pharmacol. 1993, 44, 298-307). Assays were carried out with triplicate measurement in either single or triplicate experiments, depending on the compound. Inhibition by 9a and 9b was 6.4% and 9.2%, respectively. That by 10a, 10b, and 10d was 11.8%, 12.6%, and 16.0%, respectively. That by other derivatives was 5% or less. We conclude that these compounds show only very weak activity as ligands for PKC.

PKC alpha [6] = molecular target: T1, PKC alpha; test: Inhibition of PKC catalytic activity (peptide substrate phosphorylation); assay type: biochemical
Description: We further evaluated the ability of the derivatives to inhibit PKC catalytic activity. […] Inhibition by 10c was 19.5±7.6% and inhibition by 4, 5, and 9a, b, c was 6% or less (all values are mean±SEM, three experiments). […] In both cases, the inhibition curves were steeper than predicted for a competitive inhibitor, consistent with a complicated mechanism of action (Hill coefficients for 10a and 10b of 1.5±0.1 and 2.0±0.5, respectively).

[7] = Homo sapiens, Table 5, read-out: Cancer Cell Line Results ED50

COC1=Cc2ccnc3ccnc(c23)C1=O [Compound 3, 9-demethyloxyaaptamine]
IC50 ([1]; Table 1, leukemia murine P388): 0.31 µg/mL (≈ 1.46 µM) | P388 ED50 ([1]; murine P388): 0.31 µg/mL | Cancer Cell Line Results ED50 (ovary OVCAR-3): 0.39 µg/mL | Cancer Cell Line Results ED50 (CNS SF-295): 2.80 µg/mL | Cancer Cell Line Results ED50 (renal A498): 4.20 µg/mL | IC50 (lung NCI-H460; Table 1): 2.3 µg/mL (≈ 10.8 µM) | IC50 (colon KM 20L2; Table 1): 2.1 µg/mL (≈ 9.9 µM) | Cancer Cell Line Results ED50 (melanoma SK-MEL-5): 1.00 µg/mL

COc1cc2ccnc3c2c(c1OC)NC=C3 [Compound 1, aaptamine]
IC50 ([1]; Table 1, leukemia murine P388): 3.6 µg/mL (≈ 15.8 µM) | Cancer Cell Line Results ED50 (ovary OVCAR-3): 4.90 µg/mL | Cancer Cell Line Results ED50 (CNS SF-295): 4.10 µg/mL | Cancer Cell Line Results ED50 (renal A498): 3.20 µg/mL | IC50 (lung NCI-H460; Table 1): 3.2 µg/mL (≈ 14 µM) | IC50 (colon KM 20L2; Table 1): 3.6 µg/mL (≈ 15.8 µM) | Cancer Cell Line Results ED50 (melanoma SK-MEL-5): 4.30 µg/mL

Disodium isoaaptamine 9-O-phosphate [Compound 11]
Cancer Cell Line Results ED50 ([1]; Table 1, leukemia murine P388): 3.0 µg/mL | Cancer cell growth inhibitory ED50 ([1]; Table 3, leukemia P-388): 0.23 µg/mL | Cancer Cell Line Results ED50 (lung NCI-H460; Table 1): >10 µg/mL | Cancer cell growth inhibitory ED50 (lung NCI-H460; Table 3): 1.9 µg/mL | Cancer Cell Line Results ED50 (colon KM 20L2; Table 1): >10 µg/mL | Cancer cell growth inhibitory ED50 (colon KM 20L2; Table 3): 0.88 µg/mL | Cancer cell growth inhibitory ED50 (pancreas BXPC-3; Table 3): 0.74 µg/mL | Cancer cell growth inhibitory ED50 (breast MCF-7; Table 3): 2.2 µg/mL | Cancer cell growth inhibitory ED50 (CNS SF-268; Table 3): 0.28 µg/mL | Cancer cell growth inhibitory ED50 (prostrate DU-145; Table 3, prostrate DU-145): 0.52 µg/mL | Range of minimum inhibitory concentration (Cryptococcus neoformans; Table 2): * (no inhibition at 64 ug/ml) | Range of minimum inhibitory concentration (Candida albicans; Table 2): * (no inhibition at 64 ug/ml) | Range of minimum inhibitory concentration (Staphylococcus aureus; Table 2): 64 µg/mL | Range of minimum inhibitory concentration (Streptococcus pneumoniae; Table 2): 16 to 32 µg/mL | Range of minimum inhibitory concentration (Enterococcus faecalis; Table 2): * (no inhibition at 64 ug/ml) | Range of minimum inhibitory concentration (Micrococcus luteus; Table 2): * (no inhibition at 64 ug/ml) | Range of minimum inhibitory concentration (Escherichia coli; Table 2): * (no inhibition at 64 ug/ml) | Range of minimum inhibitory concentration (Enterobacter cloacae; Table 2): * (no inhibition at 64 ug/ml) | Range of minimum inhibitory concentration ([2]; Table 2): * (no inhibition at 64 ug/ml) | Range of minimum inhibitory concentration (Neisseria gonorrhoeae; Table 2): <0.5 µg/mL | stability [3]: more stable

COc1ccc(CN2C=Cc3cc(OC)c(OC)c4c3c2cc[n+]4Cc2ccc(OC)cc2)cc1.[Br-] [Compound 10b, 8,9-Dimethoxy-1,4-bis-(4-methoxybenzyl)-4H-benzo-[de][1,6]naphthyridin-1-ium bromide]
IC50 ([1]; Table 5, leukemia P388): 1.3 µg/mL | IC50 (lung NCI-H460; Table 5): 0.33 µg/mL | IC50 (colon KM 20L2; Table 5): 0.13 µg/mL | IC50 (pancreas BXPC-3; [7]): 0.11 µg/mL | IC50 (breast MCF-7; Homo sapiens, MCF7, Table 5, read-out: Cancer Cell Line Results ED50): 0.39 µg/mL | IC50 (CNS SF-268; [7]): 0.27 µg/mL | IC50 (prostrate DU-145; Homo sapiens, DU-145, Table 5, prostate DRU-145, read-out: Cancer Cell Line Results ED50): 0.1 µg/mL | Range of minimum inhibitory concentration (Cryptococcus neoformans; Table 6): 32 to 64 µg/mL | Range of minimum inhibitory concentration (Candida albicans; Table 6): * (no inhibition at 64 μg/mL) | Range of minimum inhibitory concentration (Staphylococcus aureus; Table 6): 4 µg/mL | Range of minimum inhibitory concentration (Streptococcus pneumoniae; Table 6): 16 to 32 µg/mL | Range of minimum inhibitory concentration (Enterococcus faecalis; Table 6): 16 to 32 µg/mL | Range of minimum inhibitory concentration (Micrococcus luteus; Table 6): <0.5 µg/mL | Range of minimum inhibitory concentration (Escherichia coli; Table 6): * (no inhibition at 64 μg/mL) | Range of minimum inhibitory concentration (Enterobacter cloacae; Table 6): * (no inhibition at 64 μg/mL) | Range of minimum inhibitory concentration ([2]; Table 6): * (no inhibition at 64 μg/mL) | Range of minimum inhibitory concentration (Neisseria gonorrhoeae; Table 6): 4 µg/mL | inhibition at 6.25 µg/mL [4]: 97% | inhibition at 30 µM (PKC alpha [5]): 12.6% | Hill coefficient of PKC inhibition curve (PKC alpha [6]): 2.0±0.5 | inhibition at 30 µM (PKC alpha [6]; 30 μM compound, 1 μM phorbol 12-myristate 13-acetate, 100 μg/ml phospholipid, mean±SEM, three experiments, read-out: percent inhibition of PKC catalytic activity): 84.6 ± 1.1% | IC50 (PKC alpha [6]; complete dose response curves, mean±SEM, 3 experiments, read-out: ID50 for inhibition of PKC catalytic activity): 7.4 ± 1.2 µM
